Data published in paper PMC4601051, “Discovery of Indoline-2-carboxamide Derivatives as a New Class of Brain-Penetrant Inhibitors of Trypanosoma brucei” (Journal of Medicinal Chemistry, 2015).
≈ marks a conversion by molar mass, not a printed value. Where “and” joins values, the source holds several entries; their conditions need not be identical. Identical values can stand only once.

Legend:
[1] = tested on: bloodstream form T. brucei brucei; test: T. b. brucei whole cell parasite (trypanosome growth) assay; type: cell-based, Trypanosoma brucei brucei
Description: This was conducted as previously described.[27] Cell culture plates were stamped with 1 μL of an appropriate stock concentration of test compound, followed by addition of 200 μL of trypanosome culture (HMI9-T, 10% FCS) to each well at a density of 2000 cells per well (except column 12 receiving media only). […] Potency was carried out using 10-point dose–response curves.

[2] = Microsomal intrinsic clearance (Clint), mouse; type: in vitro ADME; details: mouse liver microsomes, 0.5 μM compound
Description: Each test compound (0.5 μM) was incubated with pooled female CDI mouse liver microsomes, pooled male Sprague–Dawley rat microsomes, or pooled mixed gender human liver microsomes (Tebu-Bio, UK; 0.5 mg/mL 50 mM potassium phosphate buffer, pH 7.4) and the reaction started with addition of excess NADPH (8 mg/mL, 50 mM potassium phosphate buffer, pH 7.4). Immediately, at time zero, then at 3, 6, 9, 15, and 30 min, an aliquot (50 μL) of the incubation mixture was removed and mixed with acetonitrile (100 μL) to stop the reaction. Internal standard was added to all samples, and the samples were centrifuged at 1825g for 10 min to sediment precipitated protein. The plates were then sealed prior to UPLC/MS/MS analysis using a Quattro Premier XE (Waters Corporation, USA).
XLfit (IDBS, UK) was used to calculate the exponential decay and consequently the rate constant (k) from the ratio of peak area of test compound to internal standard at each time point.

[3] = Aqueous kinetic solubility by laser nephelometry; type: physicochemical; details: aqueous medium, Table 7
Description: (§1) The software package StarDrop by Optibrium was used to calculate physicochemical parameters including log P, molecular weight, and polar surface area (PSA). The aqueous kinetic solubility of the compounds was measured using laser nephelometry as previously described.[40] The plasma protein binding of the compounds was determined by the equilibrium dialysis method.[12]

[4] = Plasma protein binding by equilibrium dialysis, mouse; type: in vitro ADME; details: read-out: plasma protein binding, Fu (fraction unbound)
Description: as §1

[5] = Brain tissue binding by equilibrium dialysis; type: in vitro ADME; details: Sprague-Dawley, brain homogenate; rat (male SD rat); read-out: brain tissue binding (rat), Fu
Description: In brief, a 96-well equilibrium dialysis apparatus was used to determine the free fraction in the brain for the test compound (HT Dialysis LLC, Gales Ferry, CT). Membranes (12–14 kDa A cutoff) were conditioned in deionized water for 60 min, followed by conditioning in 80:20 deionized water:ethanol for 20 min and then rinsed in artificial cerebrospinal fluid (CSF) before use. Mouse brain was removed from the freezer and allowed to thaw on the day of experiment. […] Diluted brain homogenate was spiked with the test compound (10 ug/g), and 150 μL aliquots (n = 6 replicate determinations) loaded into the 96-well equilibrium dialysis plate. Dialysis vs artificial CSF (150 μL) was carried out for 5 h in a temperature controlled incubator at ca. 37 °C (Stuart scientific Ltd., UK) using an orbital microplate shaker at 125 rpm (Stuart scientific Ltd., UK). […] All samples were analyzed by means of UPLC/MS/MS on a Quattro Premier XE mass spectrometer (Waters Corporation, USA). The unbound fraction was determined as the ratio of the peak area in artificial CSF to that in brain, with correction for dilution factor according to eq 1.[42] […] 1 where D = dilution factor in brain homogenate and Fu,apparent is the measured free fraction of diluted brain homogenate.

[6] = Mouse brain penetration (brain:blood ratio); details: in vivo, dosed intravenously at 0.5 or 1 mg/kg, levels measured after 5 min, female NMRI mice, read-out: B:B (brain to blood ratio)
Description: Each compound was dosed as a bolus solution intravenously at 0.5 or 1 mg free base/kg (dose volume, 5 mL/kg; dose vehicle, 10% DMSO; 40% PEG400; 50% Milli-Q water) to female NMRI mice (n = 6). At 5 and 30 min following intravenous bolus injection of test compound, mice (n = 3/time point) were placed under terminal anesthesia with isofluorane. A blood sample was taken by cardiac puncture and mixed with two volumes of distilled water, the mice decapitated, and the brain removed. Diluted blood and brains were stored frozen until preparation and analysis by UPLC/MS/MS. For each mouse at each time point, the concentration in brain (ng/g) was divided by the concentration in blood (ng/mL) to give a brain:blood ratio. The mean value obtained was quoted.

T. b. brucei GVR35 = details: 12.5 mg/kg IP b.i.d. for 5 d from 21 d post infection, majority of mice
Description: For stage 2 of infection, the standard model is T. b. brucei GVR35 in which CNS infection is allowed to develop in female NMRI mice before treatment starts, requiring about 21 d.
These were carried out as previously described[27],[32] at the dose level presented and using the same dose formulation as the pharmacokinetic studies. HRN mice were used under the same infection and monitoring protocol as described for female NMRI mice.

[7] = tested on: panel of receptors, including dopamine, serotonin, histamine, and muscarinic receptors; test: NIMH Psychoactive Drug Screening Program (PDSP) receptor panel; type: binding; details: significant inhibition is considered > 50%
Text: However, the observed toxicity prevents further progression of the compounds. To try and identify a possible driver for toxicity, that may then offer an opportunity to design out this unwanted effect, the key compounds were screened against a panel of receptors at the NIMH Psychoactive Drug Screening Program (PDSP).[36],[37] No significant activity against a large panel of receptors, including dopamine, serotonin, histamine, and muscarinic receptors (see Supporting Information) was observed.
S2: Details of receptors screened at the NIMH Psychoactive Drug Screening Program […]
receptors screened. Significant inhibition is considered > 50%. In cases where negative inhibition (-) is seen, this represents a stimulation of binding. The receptors screened were 5- […]
HT7, Alpha1A, Alpha1B, Alpha1D, Alpha2A, Alpha2B, Alpha2C, Beta1, Beta2, Beta3, BZP rat Brain site, D1, D2, D3, D4, D5, DAT, DOR, GABBA, H1, H2, H3, KOR, M1, M2, M3, M4, M5, MOR, NET, PBR, SERT, Sigma1 and Sigma2

in vitro = details: human, MRC-5 fibroblasts
Description: Proliferation assays using bloodstream form T. brucei brucei and human MRC-5 fibroblasts were conducted using a modification of the cell viability assay as previously reported.[27],[39]
MRC-5 cells (2000 cells per well) were seeded in 200 μL of DMEM, 10% FCS, and allowed to adhere overnight. One microliter of test compound was added to each well on the day of assay initiation.
The final DMSO level was 0.5% in all cases.

[8] = Maximum tolerated dose (MTD) studies

CNC(=O)[C@H]1Cc2ccccc2N1C(=O)Cc1ccc(F)cc1 [Compound 47, (R)-1-(2-(4-Fluorophenyl)acetyl)-N-methylindoline-2-carboxamide]
Hill slope ([1]; T. brucei EC50 curve): 2.8 | EC50 ([1]; Trypanosoma brucei, mean of two or more determinations, 69 h + 4 h resazurin, read-out: T. b. brucei EC50): 50 nM | mouse microsomal intrinsic clearance [2]: 1.9 mL min^–1 g^–1 and 1.9/ND mL min^–1 g^–1 | solubility [3]: 64 µg/mL (≈ 205 µM) | fraction unbound [4]: 0.59 | fraction unbound at 5 h, 10 ug/g [5]: 0.43 | Kp at 5 min [6]: 0.9 | relapse with parasitaemia later than vehicle dosed infected mice (T. b. brucei GVR35): 6 to 13 days | inhibition against receptors screened [7]: did not show significant inhibitor | EC50 at 69 h (in vitro): > 50000 nM | tolerability ([8]; 15 mg/kg IP b.i.d., female NMRI mice (47: for 3 days)): well tolerated | tolerability ([8]; 25 mg/kg after a single dose, female NMRI mice): clinical signs of toxicity
